According to patent US20060142395A1, “Modulation of intracellular calcium signaling by N-acylethanolamines” (University of North Texas Health Science Center, priority 2003, published 2006):
pEC50: −log10 of the molar value. Like-named read-outs stand apart in the source and are kept apart here.

What was measured:
[1] = biological target: T1, type 2 IP3R from nuclei of HepG2 cells (Homo sapiens, UniProt Q14571); test: Planar lipid bilayer single channel recording of native type 2 IP3R; assay type: biochemical
T1 construct: biophysical properties of native type 2 IP3R isolated from cells; endogenous in cells; host or cells: HepG2 cells, nuclei / nuclear envelope membranes
Source text: Electrophysiological recording of ICCs is a well established technique used to measure the effects on calcium levels based on external stimuli (83, 115-117). The planar lipid bilayer technique has been used by the principal investigator to determine the function of ICCs in neurons and non-neuronal cells. The inventors isolated type 2 IP3R from nuclei of HepG2 cells using the same techniques described herein. These studies represent the first determination of the biophysical properties of native type 2 IP3R isolated from cells. All previous studies on type 2 IP3R used artificially expressed type 2 IP3R of cells that had been transfected with the respective cDNA (118-119). Single channel activity was examined using the Planar Lipid Bilayer Membrane technique. […] The lack of feedback inhibition by high concentrations of Ca^2+ is again similar to what has been observed in the recombinant type 2 IP3R (118, 121). […] Both the increased sensitivity to IP3 and the lack of Ca2+-induced inactivation distinguishes the type 2 IP3R from the well-characterized type 1 IP3R. By isolating the receptor with its associated proteins from a functional cellular environment, properties influenced by accessory proteins can be readily assessed with single channel electrophysiology. Data obtained from these experiments analyzing the single channel characteristics of ICCs will provide the biophysical information necessary to correlate intracellular signaling data with function in live cells and in vivo, as shown hereinbelow.
Planar lipid bilayer single channel electrophysiology. ER vesicles or artificial liposomes containing ICCs may be incorporated into planar lipid bilayers and channel activity may be recorded electrophysiologically with the planar lipid bilayer being equivalent to the plasma membrane patch of patch clamp electrophysiology. […] Proper insertion of the ICCs may be monitored by appropriate stimulation of channels on the cytosolic side (IP3R: Ca^2+, IP3; RyR: Ca^2+, caffeine, cADPR; pc-2: Ca^2+, activating membrane potential; 77, 83, 115-117, 141). […] Channel insertion and activity may be recorded with Ag/AgCl electrodes contacting the buffer filled compartments via KCl containing agarose bridges. Activity of a single channel protein can be monitored because it passes enough current to be measured electronically using an amplifier. […] Single channel conductance, voltage-dependence, dwell times and dependence on intracellular free Ca^2+ concentrations may be determined using standard methods in the presence of blockers of other ICCs (IP3R: no IP3, heparin; RyR: ryanodine, ruthenium red; pc-2: lack of activating membrane potential; 77, 83). […]

[2] = biological target: type 1 IP3R (Homo sapiens, UniProt Q14643); conditions: read-out: half maximal activation by IP3; cited from earlier work
[3] = biological target: recombinant type 2 IP3R (Homo sapiens, UniProt Q14571); conditions: read-out: EC50-value for IP3; cited from earlier work
[4] = system: rats and mice; conditions: transient ischemia with reperfusion and permanent occlusion; cited from earlier work
[5] = biological target: T2, type 2 RyR (Mus musculus, UniProt E9Q401); test: Planar lipid bilayer single channel recording of RyR2; assay type: biochemical
T2 construct: First, type 2 RyR were isolated from mouse; from tissue; host or cells: mouse
Protocol: NAEs differentially regulate the activity of ICCs. First, type 2 RyR were isolated from mouse. Briefly, single channel activity was examined using the Planar Lipid Bilayer Membrane technique. […] Channel activity was initiated by cytosolic Ca^2+ concentrations of 10 nM and higher.
(§1) Next, the effect of NAE 12:0 on mouse RyRs was determined. NAE 12:0 dose-dependently and isoform-specifically regulated the function of RyRs and represent the first pharmacological tool to differentially manipulate individual intracellular calcium channel isoforms (FIG. 5). […] Measured at sub-maximally activating Ca^2+ concentrations (RyR type I: pCa 6; RyR type II: pCa 6.5) 500 nM NAE 12:0 increased RyR type I activity by 42% whereas the same concentration decreased RyR type II activity by 64% (FIG. 5).
Planar lipid bilayer single channel electrophysiology. ER vesicles or artificial liposomes containing ICCs may be incorporated into planar lipid bilayers and channel activity may be recorded electrophysiologically with the planar lipid bilayer being equivalent to the plasma membrane patch of patch clamp electrophysiology. Lipid bilayer membranes may be formed in a hole in a Teflon partition, which separates two buffer filled compartments (phosphatidylethanolamine and phosphatidylserine, 3:1 w/w, dissolved in decane, 40 mg lipid per ml, Avanti Polar Lipids, Alabaster, Ala.). Vesicles containing pc-2 may be added to one compartment (corresponding to the cytosolic compartment) and fuse with the bilayer leaving the channels contained in the vesicle as the only electrical connection between the two compartments. The buffer on the cytosolic side of the channel is a 250 mM HEPES-Tris solution, pH 7.35 and a 250 mM HEPES, 55 mM Ba(OH)2 (or defined concentration of other current carrier, such as Ca(OH)2 or Mg(OH)2) solution, pH 7.35 constitutes the buffer on the trans side of the bilayer. Proper insertion of the ICCs may be monitored by appropriate stimulation of channels on the cytosolic side (IP3R: Ca^2+, IP3; RyR: Ca^2+, caffeine, cADPR; pc-2: Ca^2+, activating membrane potential; 77, 83, 115-117, 141). Improperly inserted channels that are less than 5% under the described conditions will not be included in the analysis. Channel insertion and activity may be recorded with Ag/AgCl electrodes contacting the buffer filled compartments via KCl containing agarose bridges. Activity of a single channel protein can be monitored because it passes enough current to be measured electronically using an amplifier. Altering the divalent cation species on the luminal side of the channel that carries the current will test ion selectivity. Single channel conductance, voltage-dependence, dwell times and dependence on intracellular free Ca^2+ concentrations may be determined using standard methods in the presence of blockers of other ICCs (IP3R: no IP3, heparin; RyR: ryanodine, ruthenium red; pc-2: lack of activating membrane potential; 77, 83). Modulating reagents may be added to the cytosolic side of the protein using a perfusion system (77, 83).

[6] = system: HT22 neurons; test: Neuroprotection from L-glutamate toxicity (oxidative stress); assay type: cell-based
Protocol: NAE protects neurons in vitro from oxidative stress and glutamate toxicity. Next, the neuroprotective potential effects of NAEs were determined by culturing an immortalized hippocampal neuron cell line, HT 22, a model system used extensively. […] The mechanism of neurotoxicity is depletion of intracellular glutathione stores by inhibition of the cysteine transport and subsequently of glutathione synthesis.
The following assays may be used to assess neuronal viability and different stages of cell death. Optical assessment._Changes in cell morphology (apoptotic and necrotic morphology) and cell number may be used as an initial assessment of neurotoxicity and neuroprotection (see preliminary results in FIG. 8) using bright field differential interference contrast microscopy (Olympus IX-70, Olympus Corp., Japan; SimplePCI, C-imaging systems, Compix, Inc.).

[7] = biological target: T3, RyR type I (Mus musculus, UniProt E9PZQ0); test: Planar lipid bilayer single channel recording of RyR type I; assay type: biochemical
T3 construct: from tissue; host or cells: mouse
Protocol: as §1
Planar lipid bilayer single channel electrophysiology. ER vesicles or artificial liposomes containing ICCs may be incorporated into planar lipid bilayers and channel activity may be recorded electrophysiologically with the planar lipid bilayer being equivalent to the plasma membrane patch of patch clamp electrophysiology. […] Proper insertion of the ICCs may be monitored by appropriate stimulation of channels on the cytosolic side (IP3R: Ca^2+, IP3; RyR: Ca^2+, caffeine, cADPR; pc-2: Ca^2+, activating membrane potential; 77, 83, 115-117, 141). […] Channel insertion and activity may be recorded with Ag/AgCl electrodes contacting the buffer filled compartments via KCl containing agarose bridges. Activity of a single channel protein can be monitored because it passes enough current to be measured electronically using an amplifier. […]

[8] = system: ovariectomized (OVX) rats; test: Middle cerebral artery occlusion, cerebral ischemia-reperfusion injury; assay type: in vivo
[9] = system: Akt; conditions: primary hippocampal neurons, 100 μM, 60 min, total Akt unchanged
Protocol: Western Blot Analysis. Cells may be lysed in lysis buffer (50 mM Tris (pH 7.4), 150 mM NaCl, 10% glycerol, 1 mM EGTA, 1 mM Na3VO4, 5 μM ZnCl2, 100 mM NaF, 1% Triton X-100, 10 μg/ml aprotinin, 1 μg/ml leupeptin, and 1 mM PMSF) and snap frozen in liquid nitrogen. Following homogenization, by trituration of the cells through a 22 Ga needle, and centrifugation at 100,000×g for 15 min at 4° C., resulting supernatants (lysates) are normalized for protein content (Lowry Assay, Biorad DC Protein Assay Kit). 25 mg of protein from each sample will then be separated on a 10% polyacrylamide gel (SDS/PAGE) followed by transfer onto PVDF membranes (0.22 mm pore size, Biorad, Hercules, Calif.). The membranes are then blocked overnight with 3% BSA (Fraction V; Sigma) or in Tris-buffered saline containing 0.2% Tween-20 (TBS-T) and probed with the appropriate antibody. […] For Akt phosphorylation, rabbit anti-phosphoAkt (Ser473) or rabbit anti-phosphoAkt(Thr308) (Cell Signaling Technology); for Akt protein assessment, rabbit anti-Akt (New England Biolabs). Binding of the primary antibody to the membrane may be detected using a secondary antibody (either goat anti-rabbit or goat anti-mouse), conjugated to horseradish peroxidase (HRP; 1:40,000, Pierce, Rockford, Ill.) and visualized using enzyme-linked chemiluminescence (ECL; Amersham, Arlington Heights, Ill.). […]

[10] = system: primary cultures of hippocampal neurons; test: Ca2+ imaging of L-glutamate induced Ca2+ transients (fluo-3); assay type: cell-based; conditions: 100 μM, 30 min preincubation, 100 μM L-Glutamate stimulus
Protocol: Both single wavelength (high sensitivity) and ratiometric (quantitative analysis) fluorescent Ca^2+ indicator dyes may be used. Various parameters may be studies, such as substrate adherence, dye concentration, and culture conditions, have been optimized for measuring acutely isolated neurons as well as neuronal cell lines, as will be known to the skilled artisan. NAEs influence intracellular Ca2+ homeostasis. Next, studies were conducted using primary cultures of hippocampal neurons to determine the effects of NAEs on intracellular Ca^2+ signaling. In these studies, the influence of a bath-based application of NAE 16:0 on intracellular Ca^2+ signaling of primary hippocampal neurons was analyzed. Hippocampal neurons like most other CNS neurons express RyR isoform 2. Some neurons also express RyR3 and RyR1 is found predominantly in glial cells.
FIGS. 6A to 6E demonsatrate the effect of NAEs on primary isolated and cultured hippocampal neurons were exposed to 100 μM L-Glutamate. FIG. 6A show the DIC image of a neuron and the fluorescence of the calcium indicator dye fluo-3 in the same cell at resting levels (FIG. 6B) and after L-Glutamate stimulation (FIG. 6C; scale bar: 25 μm). […] When the hippocampal neurons were stimulated with L-glutamate, this triggers an influx of extracellular Ca^2+ and a prolonged release of Ca^2+ from intracellular stores (FIG. 6D). […]

[11] = system: IP3R; test: Western blot of phosphothreonine on IP3R in retina tissue in vitro; assay type: cell-based, mouse; conditions: 100 nM, 60 min, vs vehicle control
Source text: Chemo-luminescence-enhanced Western blotting as a sensitive method to evaluate changes in intracellular signaling. A crucial factor in the determination of signaling proteins mediating neuroprotection is the specificity of reagents used for immunolocalization. As disclosed herein, a number of antibodies identified and characterized (Tables 1 and 2) and the conditions that allow full identification of signaling proteins mediating NAE responses through NAEs in neurons provided. Using the sensitive chemo-luminescence-enhanced Western blotting technique, changes were detected in signaling protein composition. Furthermore, immunodetection methods allow an analysis of the changes in the phosphorylation status of signaling proteins in experiments assessing the neuroprotective functions of NAEs. The high temporal and quantitative sensitivity of the assay system may be especially useful in our in vitro and in vivo model systems of neurotoxicity which will measure small but functionally relevant initial changes associated with neuronal damage. In additional studies, the effects of lipophilic hormones on the phosphorylation status of intracellular calcium channels was determined. […]
The high temporal and quantitative sensitivity of the assay system may be especially useful in our model systems which will produce functionally relevant initial changes associated with neuronal damage.

T1 sequence (Q14571 whole entry): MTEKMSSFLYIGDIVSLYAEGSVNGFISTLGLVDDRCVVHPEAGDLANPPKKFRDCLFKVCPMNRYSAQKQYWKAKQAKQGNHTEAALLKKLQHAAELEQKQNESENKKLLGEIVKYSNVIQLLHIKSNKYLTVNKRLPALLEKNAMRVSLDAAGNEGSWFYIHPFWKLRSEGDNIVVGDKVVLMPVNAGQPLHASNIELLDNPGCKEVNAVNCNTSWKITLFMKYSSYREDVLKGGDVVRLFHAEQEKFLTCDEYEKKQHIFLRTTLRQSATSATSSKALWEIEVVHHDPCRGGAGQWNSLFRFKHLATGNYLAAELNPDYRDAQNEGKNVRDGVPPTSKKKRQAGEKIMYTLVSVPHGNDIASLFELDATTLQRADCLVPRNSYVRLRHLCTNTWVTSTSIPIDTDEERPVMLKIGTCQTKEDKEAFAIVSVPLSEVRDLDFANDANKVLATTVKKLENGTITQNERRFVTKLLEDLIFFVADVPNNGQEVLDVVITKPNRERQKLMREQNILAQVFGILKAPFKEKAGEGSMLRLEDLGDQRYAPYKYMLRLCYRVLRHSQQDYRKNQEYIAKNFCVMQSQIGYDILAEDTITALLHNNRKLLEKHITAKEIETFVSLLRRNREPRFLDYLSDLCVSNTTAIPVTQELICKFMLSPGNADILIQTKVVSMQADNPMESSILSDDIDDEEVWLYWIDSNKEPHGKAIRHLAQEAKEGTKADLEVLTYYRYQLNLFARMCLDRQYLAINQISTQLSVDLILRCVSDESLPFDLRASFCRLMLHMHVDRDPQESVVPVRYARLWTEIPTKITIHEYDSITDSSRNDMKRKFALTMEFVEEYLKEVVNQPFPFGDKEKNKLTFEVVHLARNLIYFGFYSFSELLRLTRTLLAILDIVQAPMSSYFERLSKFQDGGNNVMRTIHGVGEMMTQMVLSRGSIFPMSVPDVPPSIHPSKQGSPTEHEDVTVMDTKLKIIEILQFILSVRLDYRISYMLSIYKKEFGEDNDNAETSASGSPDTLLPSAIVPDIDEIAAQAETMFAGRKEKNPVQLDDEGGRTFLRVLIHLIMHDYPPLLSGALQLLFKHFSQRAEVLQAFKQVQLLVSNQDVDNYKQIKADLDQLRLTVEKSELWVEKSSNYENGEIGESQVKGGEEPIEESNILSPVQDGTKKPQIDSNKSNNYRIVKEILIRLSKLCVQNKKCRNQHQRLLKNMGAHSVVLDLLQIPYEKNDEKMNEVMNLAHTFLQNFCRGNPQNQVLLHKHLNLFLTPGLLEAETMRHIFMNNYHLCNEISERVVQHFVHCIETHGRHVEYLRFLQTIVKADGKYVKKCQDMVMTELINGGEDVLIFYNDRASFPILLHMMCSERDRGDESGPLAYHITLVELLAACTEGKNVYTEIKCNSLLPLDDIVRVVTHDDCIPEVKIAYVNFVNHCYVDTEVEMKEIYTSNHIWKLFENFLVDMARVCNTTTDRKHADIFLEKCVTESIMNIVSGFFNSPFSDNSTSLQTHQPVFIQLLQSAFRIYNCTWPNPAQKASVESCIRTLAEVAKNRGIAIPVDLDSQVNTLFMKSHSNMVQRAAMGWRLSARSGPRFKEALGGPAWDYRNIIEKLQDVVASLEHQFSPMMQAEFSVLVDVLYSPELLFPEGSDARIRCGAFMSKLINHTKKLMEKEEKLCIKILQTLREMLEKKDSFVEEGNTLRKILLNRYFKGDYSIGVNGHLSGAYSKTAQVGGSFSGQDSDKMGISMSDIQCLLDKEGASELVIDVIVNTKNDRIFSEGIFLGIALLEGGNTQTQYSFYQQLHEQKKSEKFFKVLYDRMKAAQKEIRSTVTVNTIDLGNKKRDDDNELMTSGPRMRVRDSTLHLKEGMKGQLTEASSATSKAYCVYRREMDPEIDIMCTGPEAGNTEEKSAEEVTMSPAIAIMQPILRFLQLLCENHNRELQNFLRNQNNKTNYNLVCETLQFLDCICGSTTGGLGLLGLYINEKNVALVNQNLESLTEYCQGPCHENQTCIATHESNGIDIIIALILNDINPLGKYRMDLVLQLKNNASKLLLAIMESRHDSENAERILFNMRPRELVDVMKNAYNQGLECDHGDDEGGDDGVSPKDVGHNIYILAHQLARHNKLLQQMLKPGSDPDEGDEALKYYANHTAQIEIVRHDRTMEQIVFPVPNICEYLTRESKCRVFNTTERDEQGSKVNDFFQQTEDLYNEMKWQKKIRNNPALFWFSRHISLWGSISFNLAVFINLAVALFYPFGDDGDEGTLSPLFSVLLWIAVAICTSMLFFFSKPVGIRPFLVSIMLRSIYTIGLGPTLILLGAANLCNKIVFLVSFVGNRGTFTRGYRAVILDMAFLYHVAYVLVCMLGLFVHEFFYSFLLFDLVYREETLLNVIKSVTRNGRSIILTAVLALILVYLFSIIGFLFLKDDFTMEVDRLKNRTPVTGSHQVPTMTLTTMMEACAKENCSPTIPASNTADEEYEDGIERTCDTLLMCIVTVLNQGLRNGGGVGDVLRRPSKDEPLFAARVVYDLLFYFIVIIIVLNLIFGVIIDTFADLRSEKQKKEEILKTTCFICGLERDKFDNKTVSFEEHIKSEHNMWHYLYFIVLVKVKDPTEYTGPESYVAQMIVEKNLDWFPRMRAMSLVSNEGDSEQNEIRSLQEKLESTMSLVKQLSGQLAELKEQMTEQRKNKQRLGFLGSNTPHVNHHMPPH

For `O=P(O)(O)O[C@@H]1[C@H](O)[C@H](O)[C@@H](OP(=O)(O)O)[C@H](OP(=O)(O)O)[C@H]1O` [IP3, inositol 1,4,5-trisphosphate], the “cytosolic IP3 concentration that initiates channel activity” value [1] is given as ≥ 10 nM, the pEC50 ([1]; native channel, data not shown, read-out: half maximal activation, dependence on cytosolic IP3 concentration) is given as 7.19 and the pEC50 [2] is given as 6.30. For the same compound, the pEC50 [3] was 7.24.

In the case of `C[C@]12CC[C@@H]3c4ccc(O)cc4CC[C@H]3[C@@H]1CC[C@@H]2O` [17β-estradiol], the protection [4] is listed as > 50%.

With `CCCCCCCCCCCC(=O)NCCO` [NAE 12:0] the “decrease of RyR type II activity” value ([5]; 500 nM, pCa 6.5, n=3, FIG. 5) was 64%, the “change of single channel conductance and amplitude” value ([5]; RyR 2) was “Neither NAE 12:0 nor NAE 18:2 changed” and the “protection from L-glutamate toxicity” value [6] was “dose-dependently protects”. The “effect of NAE alone on neuronal viability” value ([6]; HT-22 cells, even at high concentrations, no L-glutamate) was “no effect”, the “number of dead cells after L-glutamate insult” value ([6]; in the presence of the NAE) was “significantly reduced” and the “increase of RyR type I activity” value ([7]; 500 nM, pCa 6, n=3, FIG. 5) was 42%. The “change of single channel conductance and amplitude” value ([7]; RyR 1) was “Neither NAE 12:0 nor NAE 18:2 changed”.

For `N.N.N.N.N.N.N.N.N.N.N.N.N.N.[Cl-].[Cl-].[Cl-].[Cl-].[Cl-].[Cl-].[O-2].[O-2].[Ru+3].[Ru+3].[Ru+4]` [ruthenium red, reference compound], the “block of channel activity” value ([5]; ruthenium red 20 μM) was “blocked”.

For `CCCCCCCCCCCCCCCC(=O)NCCO` [NAE 16:0], the channel open frequency ([5]; 0.1 μM) was “reduced significantly”, the channel open probability ([5]; 0.1 μM) was “reduction” and the dwell time ([5]; 0.1 μM) was “reduced significantly”. The “channel activity at higher concentrations” value ([5]; higher, micromolar concentrations, FIG. 4) was “almost complete block”, the “single channel amplitude (not affected)” value ([5]; in presence of NAE 16:0) was 3.9±0.1 pA and the “single channel conductance (not affected)” value ([5]; in presence of NAE 16:0) was 110±8 pS. The RyR2 channel activity ([5]; pCa 6, n=3, FIG. 4) was “dose-dependently decreased”, the “effect of NAE alone on neuronal viability” value [6] was “no effect” and the “potency in neuroprotection, comparison” value ([6]; FIG. 10 vs FIG. 9) was “higher potency in neuroprotection than NAE 12:0”. For the same compound, the “protection of cerebral cortex and basal ganglia (infarct volume, TTC)” value ([8]; 10 mg/kg sc, 1 hr MCAO, 24 hr reperfusion, N=7/group, P<0.05 vs OVX) was “protected”, the “protection of CNS tissue from MCA occlusion-induced ischemic damage” value ([8]; acute (sc 6 h prior and immediately before MCAO, 10 mg/kg) and chronic (1 day prior) regimen) was “effectively protected” and the “phosphorylated/active Akt” value [9] was “significant increase”. The “amplitude of Ca2+ transients” value [10] was “significantly decreased” and the “duration of Ca2+ transients” value [10] was “significantly decreased”.

With heparin the “block of channel activity” value ([1]; heparin 50 μg/ml) was “blocked”.

For calmodulin, the “effect on lack of Ca2+ inhibition of the channel” value ([1]; excess amounts, preliminary experiments) was “did not change this behavior”.

In the case of `CC(=O)[C@H]1CC[C@H]2[C@@H]3CCC4=CC(=O)CC[C@]4(C)[C@H]3CC[C@]12C` [progesterone], the “phosphothreonine immunoreactivity on the IP3R” value [11] was “increase”.
